Assay results taken from patent US20130189382A1, “Use of fucoxanthin in the preparation of product for improving memory and having neuroprotective effect associated with neurodegenerative disorder” (Beijing Gingko Group Biological Technology Co., Ltd., priority 2010, published 2013).
Marks after values point to notes of the source that are not given here.

What was measured:
[1] = tested on: memory acquisition of mice; assay: Step-through test, memory acquisition of mice; type: in vivo; settings: 0.42 mg/kg·bw for 30 days
Method: (§1) 1.1 Material: pure fucoxanthin prepared by our company, and the recommended daily intake for a mouse is equal to the daily dose 4 mg of the human body, male Kuming mice, 6 to 8 weeks old, bodyweight ranging from 18 to 22 g.
(§2) 1.2 dose and group: take the daily dose, i.e. 4 mg of fucoxanthin of the human body as a dose group, turn the dose into the daily dose of the mice, and set a blank control group.
1.52 Step-through test: the selection of animals, the grouping in the test, the doses for the tested objects, the administration methods and the administration time are the same as those in the step-down test, and step-through training was conducted after administering the samples continuously for 30 days. During the experiment, make the mice face back to the entrance of a bright room and put the mice into the bright room, start a timer, the animals passed through the entrance, entered the […] and received electric shocks, stop the timer, take out the mice and record the time needed for each mouse to be put into the bright room and enter a dark room to receive the electric shocks, i.e. the latency, repeat the test 24 hours later at the same time, and record the latency for each mouse to enter the dark room, the number of errors within 5 minutes, and the number of animals that entered the dark room.
(§3) 1.6 Data processing: process the obtained data by utilizing an SPSS1010 statistic software package and employ analysis of variance and X^2 test in the statistic method. […]

[2] = tested on: rat brain cortical neurons induced by Aβ25-35; assay: T-AOC in culture medium of neurons damaged by Aβ25-35; type: cell-based
Description: Aβ25-35 and MTT, purchased from Sigma Company; T-AOC assay kit, MDA assay kit, GSH-PX assay kit and SOD assay kit, purchased from Nanjing Jiancheng Bioengineering Institute; and cell apoptosis fluorescent Hoechst33342/PI double staining reagent kit purchased from Nanjing KeyGEN Biotech Co., Ltd. […] Other detection indexes: […] Three experiments of different samples were repeated to detect each index of this experiment (except the Hoechst/PI double staining experiment and the experiment of cell morphological observation), and all results are obtained via the results of three experiments by using statistical analysis. The T-AOC can be measured to evaluate the antioxidant capacity of the total antioxidant substances in the system. […] The protective effect of the Fx-powder is improved with the increase of the drug concentrations. However, A and the Fx-oil are not dose-dependent although they can improve the T-AOC.

[3] = tested on: rat brain cortical neurons induced by Aβ25-35; assay: GSH-PX activity in culture medium of neurons damaged by Aβ25-35; type: cell-based
Description: (§4) Aβ25-35 and MTT, purchased from Sigma Company; T-AOC assay kit, MDA assay kit, GSH-PX assay kit and SOD assay kit, purchased from Nanjing Jiancheng Bioengineering Institute; and cell apoptosis fluorescent Hoechst33342/PI double staining reagent kit purchased from Nanjing KeyGEN Biotech Co., Ltd. […] Other detection indexes: […] Three experiments of different samples were repeated to detect each index of this experiment (except the Hoechst/PI double staining experiment and the experiment of cell morphological observation), and all results are obtained via the results of three experiments by using statistical analysis. Detect the influence of the reference substance A (A) and the coarse extracts thereof FX-01 powder (Fx-powder) and Fx-01 oil (Fx-oil) on the GSH-PX activity in the culture medium of the rat brain cortical neuron model induced by Aβ25-35, and the result is as shown in Table 3.

[4] = tested on: rat brain cortical neurons induced by Aβ25-35; assay: SOD activity in culture medium of neurons damaged by Aβ25-35; type: cell-based
Description: as §4, with “analysis. The SOD activity can reflect ability of organisms to remove ROS indirectly. The” for “analysis. Detect the”, “the SOD” for “the GSH-PX”, “by Aβ25-35 is detected” for “by Aβ25-35,”, “Table 2. […] The SOD activity is improved with the increase of drug concentrations.” for “Table 3.”

[5] = tested on: rat embryo neuron; settings: literature 2001-335480A published in Japan; cited from earlier work
[6] = tested on: rat brain cortical neurons induced by Aβ25-35; assay: Neuron morphological detection by Hoechst/PI double staining; type: cell-based; settings: compared with model group, FIG. 1
Method: The anti-AD activity of fucoxanthin is evaluated by detecting indexes including cell survival rate (MTT), cytomorphology, SOD, GSH-PX, T-AOC and MDA etc. SOD plays an important role in the balance between oxidation and anti-oxidization of organisms. The enzyme is able to remove superoxide anion free radicals and protect cells from damage, and the activity of the enzyme indirectly reflects the ability of organisms to remove ROS. GSH-PX, which is an important enzyme for catalyzing the decomposition of hydrogen peroxide in the body, is able to protect the integrity of cellular membrane structures and functions. The T-AOC can be measured to evaluate the antioxidant capacity of the total anti-oxidant substances in a system. The quantity of MDA reflects the degree of lipid peroxidation in organisms and may indirectly reflect the damage level of cells attacked by free radicals. Hoechst/Propidium Iodide (PI) double staining is applied to cell morphological observation: both PI and Hoechst33342 can bonde with cell nuclear Deoxyribonucleic Acid (DNA) (or Ribonucleic Acid (RNA)). However, PI fails to get through normal cellular membranes while Hoechst is a membrane-permeable fluorescent dye. Therefore, necrotic cells or cells whose cellular membranes are damaged during late apoptosis are stained red by PI while normal cells and cells in early apoptosis or mid-apoptosis are stained blue by Hoechst. However, nucleolus of apoptotic cell present a bright blue color due to concentration. Normal cells (blue), apoptotic cells (bright blue) and necrotic cells (red) can be distinguished according to different colors. However, the accompanying drawings in the specification are colorless, thus the colors are replaced by hollow rounds (blue), grey rounds (bright blue) and black rounds (red). […] Other detection indexes: […] […]

[7] = tested on: memory acquisition of mice; assay: Step-down test, memory acquisition of mice; type: in vivo; settings: 0.42 mg/kg·bw by lavage for 30 days
Method: as §1, §2
1.51 Step-down test: select 20 male mice with a bodyweight of 18 to 22 g, randomly divide the mice into a blank control group and a medication group, administer fucoxanthin to the medication group by lavage, conduct step-down training to the mice after administering the sample to the mice continuously for 30 days, put the animals in a reaction tank for adaption for 3 minutes, introduce a 36V alternating current, and the normal reaction of the animals was to jump back to the insulated platform quickly. Most of the animals might jump onto the copper grids again or jump onto the copper grids for multiple times, and jump back onto the platform after receiving electric shocks. After training once, the animals were placed on the platform in the reaction tank, record the number of electric shocks (number of errors) received by each mouse within 5 minutes as the learning performance, retest 24 hours later, and record the number of animals that received the electric shocks, the latency for the animals to step down the platform for the first time, and number of errors within 3 minutes.
as §3

[8] = tested on: rat brain cortical neurons induced by Aβ25-35; assay: MDA content in culture medium of neurons damaged by Aβ25-35; type: cell-based
Description: Aβ25-35 and MTT, purchased from Sigma Company; T-AOC assay kit, MDA assay kit, GSH-PX assay kit and SOD assay kit, purchased from Nanjing Jiancheng Bioengineering Institute; and cell apoptosis fluorescent Hoechst33342/PI double staining reagent kit purchased from Nanjing KeyGEN Biotech Co., Ltd. […] Other detection indexes: […] Three experiments of different samples were repeated to detect each index of this experiment (except the Hoechst/PI double staining experiment and the experiment of cell morphological observation), and all results are obtained via the results of three experiments by using statistical analysis. ROS is generated by organisms through the enzyme system and the non-enzyme system and the ROS is able to attack polyunsaturated fatty acids in biological membranes, and initiate lipid peroxidation to form lipid peroxides, such as MDA. Therefore, the amount of MDA can reflect the degree of lipid peroxidation in organisms, thereby indirectly reflecting the damage degree of cells attacked by free radicals. […] The Fx-powder can reduce the MDA content in the culture medium of the damaged neurons remarkably and is dose-dependent, and the protective effect of the Fx-powder increases with the increase of drug concentrations. The Fx-oil also has such effect to protect neurons from oxidative damage and is not evidently dose-dependent. The reference substance A presents certain protective effect at a low dose, but the effect is seemingly reversed at medium and high doses, along with an increase in the MDA content. However, there is no statistical difference compared with the model group.

[9] = tested on: rat brain cortical neurons induced by Aβ25-35; assay: Cell survival rate by MTT method in neurons damaged by Aβ25-35; type: cell-based; settings: control = 100%
Description: 1) kill zero to four-day old neonatal rats, immerse the rats in 75% alcohol for 2 to 3 seconds, put the rats in a sterile culture dish, take their brains, and place the brains in a sterile culture dish containing cold D-Hanks liquid, remove meninges and blood vessels, and isolate the cerebral cortex.
2) place the isolated tissues in a sterile culture dish containing a proper amount of 0.125% trypsin solution, cutting up the tissues into a size of about 0.5 mm*0.5 mm*0.5 mm, and place them for 5 minutes at room temperature.
3) transfer the tissue blocks to a 15 ml centrifugal tube, add a proper amount of DMEM-F12 culture medium containing 10% bovine serum to terminate digestion, blow gently with a bend suction pipe to obtain a single cell suspension.
4) filter the cells with a 400-mesh cell strainer.
5) perform centrifugation at 1000 rpm for 5 minutes, discard the supernatant, add a D-Hanks liquid to wash the cells, perform centrifugation at 1000 rpm for 5 minutes and discard the supernatant.
6) add a proper amount of DMEM-F12 culture medium containing 10% bovine serum, count the cells, according to a concentration of 1*10^5 cells/ml, inoculate cells in a 96-pore plate or a 24-pore plate, which applied with 10 μg/ml of polylysine as a basic layer, place the plate in a CO2 incubator and culture at 37 °C in a CO2 concentration of 5%.
7) 24 hours later, replace the culture medium with a DMEM-F12 culture medium containing 5 mg/L cytarabine and 10% bovine serum; 24 hours later, replace the culture medium with a DMEM-F12 culture medium containing 2% B-27 and 10% bovine serum; replace the culture medium with a DMEM-F12 culture medium containing 2% B-27 and 10% bovine serum every 2 days subsequently to change the solution.
A total of 8 experiment groups are set for cell survival rate detection, including a normal control group, a model group, 5 medicament groups of different concentrations (drug concentrations (the drug concentrations described herein refer to the dry weight of fucoxanthin): 0.39, 0.78, 1.56, 3.12 and 6.25 μg/ml) and a medicament control group (6.25 μg/ml). Other detection indexes: SOD, GSH-PX, T-AOC, MDA and cell morphological observation in which 5 experimental groups are set in total, including a normal control group, a model group and 3 medicament groups of different concentrations (drug concentrations: 0.39, 0.78 and 1.56 μg/ml).
Take cells cultured for 7 days, administer corresponding concentrations of the drug to the medicament groups, add an equal amount of a corresponding solvent to the control group and the model group, incubate for 16 hours, treat groups besides the control group with 5 μM of Aβ25-35 (pre-aged for 7 days at 37□) for 24 hours, take the cell culture medium to detect the T-AOC, the SOD, the MDA and the GSH-PX subsequently, and measure the cell survival rate by MTT method or perform morphological observation with a Hoechst/PI double staining experiment.
Determination of the cell survival rate by MTT method: culture the cells in a 96-pore plate, administer the drug to protect the cells for 16 hours, after damaging the cells by Aβ25-35 for 24 hours, add 5 mg/ml of MTT to the culture medium, continue to culture for 4 hours, terminate the culture, remove the culture medium through careful suction, add 200 μl of dimethyl sulfoxide to each pore, measure the absorbance of each pore at Optical Density (OD) 490 nm with an enzyme-labeled instrument after the crystals are completely dissolved and calculate the cell survival rate by taking the control group as 100%.

SMILES: CC(=O)O[C@H]1CC(C)(C)C(=C=C/C(C)=C/C=C/C(C)=C/C=C/C=C(C)/C=C/C=C(\C)C(=O)C[C@@]23O[C@]2(C)C[C@@H](O)CC3(C)C)[C@](C)(O)C1 [A, fucoxanthin]
- Error response rate (%) [1]: 50** %
- Latency (seconds) Training [1]: 40.2 ± 6.5 s
- Latency (seconds) Test ([1]; test 24 h later): 240.4 ± 43.2 s
- Number of errors Test ([1]; within 5 minutes): 0.4 ± 0.3
- T-AOC (U/ml) ([2]; 0.39 μg/ml): 1.50 ± 0.54 U/ml
- T-AOC (U/ml) ([2]; 0.78 μg/ml): 1.26 ± 0.37 U/ml
- T-AOC (U/ml) ([2]; 1.56 μg/ml): 1.12 ± 0.13 U/ml
- GSH-PX (U/ml) ([3]; 0.39 μg/ml): 38.17 ± 6.84 U/ml
- GSH-PX (U/ml) ([3]; 0.78 μg/ml): 61.50 ± 51.62 U/ml
- GSH-PX (U/ml) ([3]; 1.56 μg/ml): 34.00 ± 5.29 U/ml
- SOD (U/ml) ([4]; 0.39 μg/ml): 15.38 ± 0.71 U/ml
- SOD (U/ml) ([4]; 0.78 μg/ml): 15.72 ± 0.87 U/ml
- SOD (U/ml) ([4]; 1.56 μg/ml): 15.77 ± 0.83 U/ml
- Effect on rat embryo neuron injuries caused by cerebral ischemia-reperfusion [5]: can inhibit rat embryo neuron injuries caused by cerebral ischemia-reperfusion
- Morphological detection: apoptotic and necrotic cells ([6]; 0.39 μg/ml): slight decrease in the necrotic cells
- Morphological detection: apoptotic and necrotic cells ([6]; 0.78 μg/ml): The apoptotic cells and the necrotic cells decrease
- Morphological detection: apoptotic and necrotic cells ([6]; 1.56 μg/ml): The apoptotic cells and the necrotic cells decrease
- Error response rate (%) Training [7]: 100%
- Error response rate (%) Test ([7]; retest 24 h later): 50%
- Latency Test ([7]; retest 24 h later): 136.2 ± 25.6 s
- Number of errors Test ([7]; retest 24 h later, within 3 minutes): 0.3 ± 0.31
- Number of errors Training ([7]; within 5 minutes): 1.1 ± 0.56
- MDA ([8]; 0.39 μg/ml): 5.12 ± 1.17 µmol/mL
- MDA ([8]; 0.78 μg/ml): 14.62 ± 3.82 µmol/mL
- MDA ([8]; 1.56 μg/ml): 12.34 ± 1.58 µmol/mL
- Cell survival rate (%) ([9]; 0.39 μg/ml, drug 16 h then 5 μM Aβ25-35 24 h): 98.45 ± 15.89 %
- Cell survival rate (%) ([9]; 0.78 μg/ml, drug 16 h then 5 μM Aβ25-35 24 h): 92.36 ± 17.79%
- Cell survival rate (%) ([9]; 1.56 μg/ml, drug 16 h then 5 μM Aβ25-35 24 h): 98.99 ± 9.52 %
- Cell survival rate (%) ([9]; 3.12 μg/ml, drug 16 h then 5 μM Aβ25-35 24 h): 100.98 ± 8.74 %
- Cell survival rate (%) ([9]; 6.25 μg/ml, drug 16 h then 5 μM Aβ25-35 24 h): 103.31 ± 11.93 %
- Cell survival rate (%) ([9]; medicament control group (6.25 μg/ml)): 104.47 ± 20.70%
